Laboratory results as given in patent US5625032A, “Selective amylin antagonist peptides and uses therefor” (Amylin Pharmaceuticals, Inc., priority 1993, dated 1997).
“Also recorded” adds a separate entry of the source. Peptide text beside a SMILES is read from it.

How the values were obtained:
[1] = tested on: anesthetized rats; assay: Infusion studies: inhibition of amylin-induced changes in plasma glucose, lactate, calcium and blood pressure; assay type: in vivo; conditions: rat, i.v. 1.5 mg bolus then 3 mg/hr for 1.5 h; amylin 50 μg bolus + 50 μg/hour
Description: Briefly, these studies are performed on anesthetized rats as described in International Application Number PCT/US92/00185, "Amylin Activity Assays", published Jul. 22, 1992. At time -0.5 hours, test rats are infused with a 1.5 mg bolus of the antagonist being tested followed by antagonist infusion at 3 mg/hr for a further 1.5 hours. At time 0 hours, a 50 μg bolus of amylin is administered followed by amylin infusion at 50 μg/hr for the remainder of the experiment. In these tests, the capacity of the antagonist to block the hyperglycemic and hyperlactemic effects of amylin are indicated by the inhibition of amylin-evoked increases in plasma glucose and plasma lactate.
Amylin antagonists were evaluated in vivo for their ability to inhibit amylin-induced elevation of plasma glucose and plasma lactate and amylin-evoked depression of plasma calcium and blood pressure. Male Harlan Sprague Dawley rats (age 75-85 days, mass 300-350 g) fasted 18-20 hours were halothane anesthetized and cannulated via the saphenous vein for infusions/injections and via the femoral artery for sampling of glucose/lactate/calcium and for recording arterial pressure. One and a half hours after surgery they were infused with a 1.5 mg intravenous bolus of test antagonist, followed by an infusion of 3 mg/hour for a further 1.5 hours (t=-0.5→+1.0 hr). At t=0 hours (0.5 hours after the start of the primed/continuous antagonist infusion) a 50 μg intravenous bolus of rat amylin was administered followed by an infusion of 50 μg/hour which continued until the end of the experiment. Blood samples were collected every 10 minutes for the first 2 hours of the test (then less frequently),and mean arterial pressure was continuously recorded from t=-0.5→t=+0.5 hours. Control rats, not administered the test substance, were injected with either saline or with primed/continuous amylin at t=0 hours, as described above.

[2] = tested on: rat soleus muscle; assay: Soleus muscle assay: antagonism of 100 nM rat amylin on insulin-stimulated glycogenesis; assay type: cell-based; conditions: read-out: IC50, antagonism of amylin effect on insulin-stimulation of glycogenesis in skeletal muscle
Description: Rat soleus muscle preparations have been in use for many years to study muscle glycogen metabolism and are well known in the field. The soleus muscle assay can be used to measure or test for amylin antagonist activity in vitro. Assays of biological activity of amylin or amylin antagonist preparations in the soleus muscle are performed using previously described methods (e.g., Young, A. A. et al., Am. J. Physiol. 263:E274-281 (1992)).
In summary, while amylin or amylin agonist activity is assessed by measuring the incorporation of radiolabelled glucose into glycogen in soleus muscle in response to an amylin or other amylin agonist, amylin antagonist activity is assessed by measuring the reversal of this inhibition in the presence of 100 nM rat amylin and an amylin antagonist. Concentrations of peptide dissolved in carrier-free buffers are determined by quantitative amino acid analysis, as described herein. The ability of compounds to act as antagonists in this assay can also be evaluated by measuring IC50 values. Standard errors are determined by fitting of sigmoidal dose response curves using a four parameter logistic equation (De Lean, A., Munson, P. J., Guardabasso, V. and Rodbard, D. (1988) ALLFIT, Version 2.7, National Institute of Child Health and Human Development, N.I.H. Bethesda, Md., 1 diskette).
These assays involving the stimulation by insulin of glycogen synthesis in rat soleus muscle in vitro were performed as described by Young, A. A. et al., Am. J. Physiol. 263:E274-281 (1992). Rat amylin inhibited the insulin-stimulated incorporation of radiolabelled glucose into glycogen.
The effects of the peptide in the rat soleus muscle glycogenesis system were measured according to the following method. Insulin-stimulated radioglucose incorporation was measured as described above in the presence of 100 nM rat amylin to maximally suppress incorporation. Increasing concentrations of AAP30 (SEQ ID NO:30), AAP37 (SEQ ID NO:37) and AAP40 (SEQ ID NO:40) were added to test their antagonism of amylin, i.e., to increase radioglucose incorporation under these conditions.

Compound: CC(=O)N[C@@H](C)C(=O)N[C@H](C(=O)N[C@@H](CCC(N)=O)C(=O)N[C@@H](CCCNC(=N)N)C(=O)N[C@@H](CC(C)C)C(=O)N[C@@H](C)C(=O)N[C@@H](CC(N)=O)C(=O)N[C@@H](CCC(=O)O)C(=O)N[C@@H](CC(C)C)C(=O)N[C@H](C(=O)N[C@@H](CCCNC(=N)N)C(=O)N[C@@H](CC(C)C)C(=O)N[C@@H](CCC(N)=O)C(=O)N[C@H](C(=O)N[C@@H](Cc1ccc(O)cc1)C(=O)N1CCC[C@H]1C(=O)N[C@@H](CCCNC(=N)N)C(=O)N[C@H](C(=O)N[C@@H](CC(N)=O)C(=O)N[C@H](C(=O)NCC(=O)N[C@@H](CO)C(=O)N[C@@H](CC(N)=O)C(=O)N[C@H](C(=O)N[C@@H](Cc1ccc(O)cc1)C(N)=O)[C@@H](C)O)C(C)C)[C@@H](C)O)[C@@H](C)O)C(C)C)[C@@H](C)O [AAP40] (Ac-ATQRLANELVRLQTYPRTNVGSNTY-NH2)
- effect on amylin-induced decrease in blood pressure (hypotension) [1]: did not inhibit
- effect on amylin-induced decrease in plasma calcium (hypocalcemia) [1]: did not inhibit
- effect on amylin-induced increase in plasma glucose (hyperglycemia) [1]: suppressed; also recorded: prevent
- effect on amylin-induced increase in plasma lactate (hyperlactemia) [1]: suppressed; also recorded: prevent
- IC50 [2]: 136 nM
